Calls of active or inactive are those of the source. The calls are words filed in the database; no cut-off is given here.

The test system of series [1] is U2OS. Put plainly: Cell cycle arrest in human U2OS cells assessed as accumulation at S phase at 0.6 uM measured after 24 hrs by propidium iodide staining based flow cytometry (reference value: 24%). The class given is functional.
Series [2] deals with Quadruplex DNA. Put plainly: Binding affinity at Tel21 G4 quadruplex DNA (unknown origin) assessed as change in melting temperature at 6 uM by circular dichroism spectrophotometric method. The class given is nucleic acid.
In series [3] the test system is Quadruplex DNA. Nature of the series: Binding affinity at Tel45 G4 quadruplex DNA (unknown origin) assessed as change in melting temperature at 6 uM by circular dichroism spectrophotometric method. In kind it is nucleic-acid assay.
Series [4] addresses Quadruplex DNA. Put plainly: Binding affinity at Tel45 G4 quadruplex DNA (unknown origin) by fluorescence spectroscopic analysis. In kind it is nucleic-acid assay.
Series [5] deals with Quadruplex DNA. Put plainly: Binding affinity at Tel21 G4 quadruplex DNA (unknown origin) by fluorescence spectroscopic analysis. The class given is nucleic-acid assay.
Series [6] can be described thus: Binding affinity to hairpin duplex DNA (unknown origin) by fluorescence spectroscopic analysis.
The subject of series [7] is Quadruplex DNA. Put plainly: Binding affinity at Tel45 G4 quadruplex DNA (unknown origin) assessed as appearance of new long-lived unquenched species by time resolved fluorescence assay. The class given is nucleic-acid assay.
Series [8] concerns Quadruplex DNA. Put plainly: Binding affinity at Tel21 G4 quadruplex DNA (unknown origin) by time resolved fluorescence analysis. The class given is nucleic-acid assay.
Series [9] can be described thus: Binding affinity to hairpin duplex DNA (unknown origin) by time resolved fluorescence analysis.
Series [10] deals with Quadruplex DNA. Put plainly: Binding affinity to Tel45 G4 quadruplex DNA (unknown origin) assessed as compound-DNA complex formation at stoichiometry ratio of 1:1 by job-plot analysis. The class given is nucleic-acid assay.
Series [11] concerns Quadruplex DNA. Put plainly: Binding affinity to 2-Ap25 labelled Tel45 G4 quadruplex DNA (unknown origin) up to 10 uM by fluorescence titration assay. In kind it is nucleic-acid assay. As to conditions: dose microM <=10.
The test system of series [12] is Quadruplex DNA. Nature of the series: Binding affinity to 2-Ap1 labelled Tel45 G4 quadruplex DNA (unknown origin) up to 10 uM by fluorescence titration assay. In kind it is nucleic-acid assay. As to conditions: dose microM <=10.
In series [13] the test system is Quadruplex DNA. Nature of the series: Binding affinity to 2-Ap46 labelled Tel45 G4 quadruplex DNA (unknown origin) up to 10 uM by fluorescence titration assay. In kind it is nucleic-acid assay. As to conditions: dose microM <=10.
In series [14] the target is Quadruplex DNA. Put plainly: Binding affinity at Tel45-6 mutant G4 quadruplex DNA (unknown origin) by fluorescence spectroscopic analysis. In kind it is nucleic-acid assay.
The target in series [15] is Quadruplex DNA. Nature of the series: Binding affinity at Tel45-9 mutant G4 quadruplex DNA (unknown origin) by fluorescence spectroscopic analysis. The class given is nucleic-acid assay.
The subject of series [16] is Quadruplex DNA. Nature of the series: Binding affinity at Tel45-6 mutant G4 quadruplex DNA (unknown origin) assessed as change in melting temperature at 6 uM by circular dichroism spectrophotometric method. The class given is nucleic-acid assay.
The test system of series [17] is Quadruplex DNA. Put plainly: Binding affinity at Tel45-9 mutant G4 quadruplex DNA (unknown origin) assessed as change in melting temperature at 6 uM by circular dichroism spectrophotometric method. The class given is nucleic-acid assay.
Series [18] deals with U2OS. Nature of the series: Cytotoxicity against human U2OS cells assessed as reduction in cell viability measured after 24 hrs by CCK8 assay.
The next series has as its system BJ. Nature of the series: Cytotoxicity against human BJ cells assessed as reduction in cell viability measured after 24 hrs by CCK8 assay. The class given is cell-based.
Series [19] deals with U2OS. Nature of the series: Inhibition of colony formation in human U2OS cells supplemented with fresh medium containing compounds every 3 days for 7 days by crystal violet staining based assay. In kind it is functional, cell-based. As to conditions: dose 0.12-0.5 µM, time 7.0 day.
The subject of series [20] is U2OS. Nature of the series: Antimigratory activity in human U2OS cells measured after 24 hrs by wound scrape assay. As to conditions: dose 1.5-5 µM. In kind it is functional, cell-based.
The subject of series [21] is U2OS. Put plainly: Cell cycle arrest in human U2OS cells assessed as increase in accumulation at S phase measured after 24 hrs by propidium iodide staining based flow cytometry. The class given is functional.
Series [22] concerns U2OS. Nature of the series: Cell cycle arrest in human U2OS cells assessed as accumulation at Sub-G1 phase at 0.6 uM measured after 24 hrs by propidium iodide staining based flow cytometry (reference value: 0.5%). In kind it is functional.
Series [23] deals with U2OS. Put plainly: Cell cycle arrest in human U2OS cells assessed as accumulation at G0/G1 phase at 0.6 uM measured after 24 hrs by propidium iodide staining based flow cytometry (reference value: 42%). The class given is functional.
The test system of series [24] is U2OS. Nature of the series: Cell cycle arrest in human U2OS cells assessed as accumulation at G2/M phase at 0.6 uM measured after 24 hrs by propidium iodide staining based flow cytometry (reference value: 33.5%). In kind it is functional.
Series [25] has as its system U2OS. Nature of the series: Cell cycle arrest in human U2OS cells assessed as accumulation at Sub-G1 phase at 1.2 uM measured after 24 hrs by propidium iodide staining based flow cytometry (reference value: 0.5%). In kind it is functional.
Series [26] concerns U2OS. Nature of the series: Cell cycle arrest in human U2OS cells assessed as accumulation at G0/G1 phase at 1.2 uM measured after 24 hrs by propidium iodide staining based flow cytometry (reference value: 42%). The class given is functional.
For series [27], the system named is U2OS. Put plainly: Cell cycle arrest in human U2OS cells assessed as accumulation at S phase at 1.2 uM measured after 24 hrs by propidium iodide staining based flow cytometry (reference value: 24%). The class given is functional.
Series [28] relates to U2OS. Nature of the series: Cell cycle arrest in human U2OS cells assessed as accumulation at G2/M phase at 1.2 uM measured after 24 hrs by propidium iodide staining based flow cytometry (reference value: 33.5%). In kind it is functional.
For series [29], the system named is U2OS. Nature of the series: Cell cycle arrest in human U2OS cells assessed as accumulation at Sub-G1 phase at 2.5 uM measured after 24 hrs by propidium iodide staining based flow cytometry (reference value: 0.5%). The class given is functional.
The subject of series [30] is U2OS. Put plainly: Cell cycle arrest in human U2OS cells assessed as accumulation at G0/G1 phase at 2.5 uM measured after 24 hrs by propidium iodide staining based flow cytometry (reference value: 42%). In kind it is functional.
For series [31], the system named is U2OS. Put plainly: Cell cycle arrest in human U2OS cells assessed as accumulation at S phase at 2.5 uM measured after 24 hrs by propidium iodide staining based flow cytometry (reference value: 24%). In kind it is functional.
Series [32] relates to U2OS. Put plainly: Cell cycle arrest in human U2OS cells assessed as accumulation at G2/M phase at 2.5 uM measured after 24 hrs by propidium iodide staining based flow cytometry (reference value: 33.5%). In kind it is functional.
Series [33] has as its system U2OS. Nature of the series: Induction of apoptosis in human U2OS cells assessed as viable cells at 0.6 uM measured after 24 hrs by Annexin-V flour 633/propidium iodide staining based flow cytometry (reference value: 90%). The class given is functional. As to conditions: read-out: Activity.
Series [34] deals with U2OS. Nature of the series: Induction of apoptosis in human U2OS cells assessed as early apoptotic cells at 0.6 uM measured after 24 hrs by Annexin-V flour 633/propidium iodide staining based flow cytometry (reference value: 9.55%). In kind it is functional.
Series [35] has as its system U2OS. Put plainly: Induction of apoptosis in human U2OS cells assessed as late apoptotic cells at 0.6 uM measured after 24 hrs by Annexin-V flour 633/propidium iodide staining based flow cytometry (reference value: 0.03%). In kind it is functional.
The subject of series [36] is U2OS. Put plainly: Induction of apoptosis in human U2OS cells assessed as necrotic cells at 0.6 uM measured after 24 hrs by Annexin-V flour 633/propidium iodide staining based flow cytometry (reference value: 0.022%). In kind it is functional.
Series [37] concerns U2OS. Nature of the series: Induction of apoptosis in human U2OS cells assessed as viable cells at 1.2 uM measured after 24 hrs by Annexin-V flour 633/propidium iodide staining based flow cytometry (reference value: 90%). In kind it is functional. As to conditions: read-out: Activity.
The subject of series [38] is U2OS. Nature of the series: Induction of apoptosis in human U2OS cells assessed as early apoptotic cells at 1.2 uM measured after 24 hrs by Annexin-V flour 633/propidium iodide staining based flow cytometry (reference value: 9.55%). In kind it is functional.
In series [39] the test system is U2OS. Put plainly: Induction of apoptosis in human U2OS cells assessed as late apoptotic cells at 1.2 uM measured after 24 hrs by Annexin-V flour 633/propidium iodide staining based flow cytometry (reference value: 0.03%). The class given is functional.
Series [40] deals with U2OS. Put plainly: Induction of apoptosis in human U2OS cells assessed as necrotic cells at 1.2 uM measured after 24 hrs by Annexin-V flour 633/propidium iodide staining based flow cytometry (reference value: 0.022%). In kind it is functional.
In series [41] the test system is U2OS. Nature of the series: Induction of apoptosis in human U2OS cells assessed as viable cells at 2.5 uM measured after 24 hrs by Annexin-V flour 633/propidium iodide staining based flow cytometry (reference value: 90%). The class given is functional. As to conditions: read-out: Activity.
For series [42], the system named is U2OS. Nature of the series: Induction of apoptosis in human U2OS cells assessed as early apoptotic cells at 2.5 uM measured after 24 hrs by Annexin-V flour 633/propidium iodide staining based flow cytometry (reference value: 9.55%). The class given is functional.
In series [43] the test system is U2OS. Put plainly: Induction of apoptosis in human U2OS cells assessed as late apoptotic cells at 2.5 uM measured after 24 hrs by Annexin-V flour 633/propidium iodide staining based flow cytometry (reference value: 0.03%). In kind it is functional.
Series [44] deals with U2OS. Put plainly: Induction of apoptosis in human U2OS cells assessed as necrotic cells at 2.5 uM measured after 24 hrs by Annexin-V flour 633/propidium iodide staining based flow cytometry (reference value: 0.022%). The class given is functional.

On to `CN1CCN(c2ccc(-c3nc(-c4ccc(-c5nc(-c6ccc(F)cc6)c(-c6ccc(N7CCN(C)CC7)cc6)[nH]5)cc4)[nH]c3-c3ccc(F)cc3)cc2)CC1`, for which the Activity with U2OS [1] is 25%; in the series with Quadruplex DNA [8], “Not Active”; in series [9], “Not Active”; in the series on U2OS [20], “Dose-dependent effect”; with U2OS [21], “Dose-dependent effect”; in the series with U2OS [22], 0.3%. Also, the Activity is listed as 41.4% in the series with U2OS [23]; 33.4% in the series with U2OS [24]; 0.4% in the series on U2OS [25]; 39.3% in the series on U2OS [26]; 25.9% with U2OS [27]; 34.4% with U2OS [28]. For the same molecule, the Activity with U2OS [29] was 3.4%; with U2OS [30], 36.5%; with U2OS [31], 32.2%; in the series with U2OS [32], 27.9%; with U2OS [34] it was 12.5%; in the series on U2OS [35], 3.05%. Besides, the Activity in the series on U2OS [36] is listed as 0.14%; in the series with U2OS [38], 17.9%; in the series on U2OS [39] it was 4.78%; with U2OS [40], 0.53%; with U2OS [42], 20%; in the series on U2OS [43] it was 4.92%. The Activity in the series with U2OS [44] was 1.34%. For the same molecule, the deltaTm with Quadruplex DNA [2] is 1.7 °C; in the series with Quadruplex DNA [16] it was 2.5 °C; in the series on Quadruplex DNA [17], 4.3 °C. The ΔTm in the series on Quadruplex DNA [3] came to 12.7 °C. The dissociation constant (Kd) at Quadruplex DNA [4] was 4.6 µM; on Quadruplex DNA [5] it was 18.4 µM; in series [6], 51.7 µM; at Quadruplex DNA [14] it was 8.6 µM; at Quadruplex DNA [15] it was 10.7 µM. Besides, the result in the series on Quadruplex DNA [7], in the series with Quadruplex DNA [10] and in the series on Quadruplex DNA [11] was Active. Also, the result in the series with Quadruplex DNA [12] and in the series with Quadruplex DNA [13] was inactive. Further, the figures for the IC50 in the series with U2OS [18] and with BJ were 2.1 µM and 29.3 µM, respectively. For the same molecule, the inhibition entry in the series with U2OS [19] was “Dose-dependent effect”. In addition, the viability at 0.6 µM with U2OS [33] is 84.3%. In the series with U2OS [37], the viability at 1.2 µM worked out at 76.8%. Also, the viability at 2.5 µM in the series on U2OS [41] came to 73.7%.
Consider `CN1CCN(c2ccc(-c3nc(-c4ccc(-c5nc(-c6ccc(N7CCN(C)CC7)cc6)c(-c6ccc(N7CCN(C)CC7)cc6)[nH]5)cc4)[nH]c3-c3ccc(N4CCN(C)CC4)cc3)cc2)CC1`, for which the deltaTm with Quadruplex DNA [2] amounted to 8.9 °C. Besides, the ΔTm in the series with Quadruplex DNA [3] stood at 6.9 °C.
In the case of `CN1CCN(c2ccc(-c3nc(-c4ccc(-c5nc(-c6ccc(F)cc6)c(-c6ccc(F)cc6)[nH]5)cc4)[nH]c3-c3ccc(N4CCN(C)CC4)cc3)cc2)CC1`, the deltaTm with Quadruplex DNA [2] came out at 6.1 °C. Moreover, in the series with Quadruplex DNA [3], the thermal shift (ΔTm) turned out to be 10.9 °C.
As for `CN(C)c1ccc(Nc2c3ccc(NC(=O)CCN4CCCC4)cc3nc3cc(NC(=O)CCN4CCCC4)ccc23)cc1`, the IC50 in the series with U2OS [18] was above 40 µM.
Consider `CN1CCN(c2ccc(-c3nc(-c4ccc(-c5nc(-c6ccc(F)cc6)c(-c6ccc(N7CCN(C)CC7)cc6)[nH]5)cc4)[nH]c3-c3ccc(N4CCN(C)CC4)cc3)cc2)CC1`, for which the deltaTm in the series with Quadruplex DNA [2] was 6.5 °C. Besides, in the series on Quadruplex DNA [3], the ΔTm stood at 15.7 °C.
